Test results: patent US6294527A, “Cephem compounds” (Zenyaku Kogyo Kabushiki Kaisha, priority 1996, dated 2001)
≈ marks a conversion by molar mass, not a printed value. Counter-ions that a name gives are not always drawn. Like-named read-outs stand apart in the source and are kept apart here.

Key:
[1] = test system: vancomycin-resistant enterococci (E. faecalis NCTC-12201); assay: Agar plate dilution MIC, vancomycin-resistant enterococci E. faecalis NCTC-12201; type: cell-based; conditions: Enterococcus faecalis
Protocol: (§1) Antibacterial test was performed in substantial accordance with agar plate dilution method based on Standard method of The Japan Society of Chemotherapy to determine minimum inhibitory concentration (MIC) of the respective test compounds against Staphylococcus aureus (S. aureus FDA 209P) and vancomycin-resistant enterococci (E. faecalis NCTC-12201). Also determined was MIC80 on clinically separated strains (27 strains) of MRSA. The inoculated amount was 10^6 CFU/ml and flomoxef (FMOX) and vancomycin (VCM) were used as controls.

[2] = test system: Staphylococcus aureus (S. aureus FDA 209P); assay: Agar plate dilution MIC, Staphylococcus aureus FDA 209P; type: cell-based; conditions: FDA209P, read-out: MIC S. aureus FDA 209P
Protocol: as §1

[3] = NCTC12201, agar plate dilution, inoculum 10^6 CFU/ml, vancomycin-resistant, read-out: MIC E. faecalis NCTC-12201
[4] = agar plate dilution, inoculum 10^6 CFU/ml

Compound | MIC [1, 3] [µg/mL] | MIC [2, 4] [µg/mL] | MIC ([1]; NCTC12201, read-out: MIC E. faecalis NCTC-12201) [µg/mL] | MIC [2] [µg/mL]
CO[C@@]1(NC(=O)CSC(F)F)C(=O)N2C(C(=O)O)=C(CSc3nnnn3CCO)CO[C@@H]21 [FMOX, flomoxef, reference compound] | > 100 | 0.2 (≈ 0.403 µM) | – | –
CN[C@H](CC(C)C)C(=O)N[C@H]1C(=O)N[C@@H](CC(N)=O)C(=O)N[C@H]2C(=O)N[C@H]3C(=O)N[C@H](C(=O)N[C@H](C(=O)O)c4cc(O)cc(O)c4-c4cc3ccc4O)[C@H](O)c3ccc(c(Cl)c3)Oc3cc2cc(c3O[C@@H]2O[C@H](CO)[C@@H](O)[C@H](O)[C@H]2O[C@H]2C[C@](C)(N)[C@H](O)[C@H](C)O2)Oc2ccc(cc2Cl)[C@H]1O [VCM, vancomycin, reference compound] | – | – | > 1000 | 0.78 (≈ 0.538 µM)
O=C(Cc1cccs1)N[C@@H]1C(=O)N2C(C(=O)O)=C(C=CSc3cc(=O)c4ccccc4s3)CS[C@H]12 [compound 1, 7-[2-(2-thienyl)acetamide]-3-[2-(4-oxo-4H-1-benzothiopyran-2-yl)thiovinyl]3-cephem-4-carboxylic acid] | 3.13 (≈ 5.77 µM) | 0.2 (≈ 0.369 µM) | – | –
O=C(Cc1cccs1)N[C@@H]1C(=O)N2C(C(=O)O)=C(C=CSc3cc(=O)c4ccc(F)cc4s3)CS[C@H]12 [compound 2, 7-[2-(2-thienyl)acetamide]-3-[2-(7-fluoro-4-oxo-4H-1-benzothiopyran-2-yl)thiovinyl]-3-cephem-4-carboxylic acid] | 0.78 (≈ 1.39 µM) | 0.05 (≈ 0.0892 µM) | – | –
COc1ccc2c(=O)cc(SC=CC3=C(C(=O)O)N4C(=O)[C@@H](NC(=O)Cc5cccs5)[C@H]4SC3)sc2c1 [compound 4, 7-[2-(2-thienyl)acetamide]-3-[2-(7-methoxy-4-oxo-4H-1-benzothiopyran-2-yl)thiovinyl]-3-cephem-4-carboxylic acid] | 1.56 (≈ 2.72 µM) | 0.1 (≈ 0.175 µM) | – | –
O=C(Cc1cccs1)N[C@@H]1C(=O)N2C(C(=O)O)=C(C=CSc3cc(=O)c4c(C(F)(F)F)cccc4s3)CS[C@H]12 [compound 5, 7-[2-(2-thienyl)acetamide]-3-[2-(4-oxo-5-trifluoromethyl-4H-1-benzothiopyran-2-yl)thiovinyl]-3-cephem-4-carboxylic acid] | 1.56 (≈ 2.55 µM) | 0.05 (≈ 0.0819 µM) | – | –
O=C(Cc1cccs1)N[C@@H]1C(=O)N2C(C(=O)O)=C(C=CSc3cc(=O)c4cc(F)c(F)c(F)c4s3)CS[C@H]12 [compound 7, 7-[2-(2-thienyl)acetamide]-3-[2-(6,7,8-trifluoro-4-oxo-4H-1-benzothiopyran-2-yl)thiovinyl]-3-cephem-4-carboxylic acid] | 0.78 (≈ 1.31 µM) | 0.025 (≈ 0.0419 µM) | – | –
O=C(Cc1cccs1)N[C@@H]1C(=O)N2C(C(=O)O)=C(C=CSc3cc(=O)c4ccc(O)cc4s3)CS[C@H]12 [compound 8, 7-[2-(2-thienyl)acetamide]-3-[2-(7-hydroxy-4-oxo-4H-1-benzothiopyran-2-yl)thiovinyl]-3-cephem-4-carboxylic acid] | 12.5 (≈ 22.4 µM) | 0.2 (≈ 0.358 µM) | – | –
O=C(Cc1cccs1)N[C@@H]1C(=O)N2C(C(=O)O)=C(C=CSc3cc(=O)c4occc4s3)CS[C@H]12 [compound 9, 7-[2-(2-thienyl)acetamide]-3-[2-(7-oxo-7H-thiopyrano[3,2-b]furan-5-yl)thiovinyl]-3-cephem-4-carboxylic acid] | 3.13 (≈ 5.88 µM) | 0.025 (≈ 0.0469 µM) | – | –
O=C(Cc1cccs1)N[C@@H]1C(=O)N2C(C(=O)O)=C(C=CSc3cc(=O)c4ccc(N5CCOCC5)cc4s3)CS[C@H]12 [compound 10, 7-[2-(2-thienyl)acetamide]-3-[2-(7-morpholino-4-oxo-4H-1-benzothiopyran-2-yl)thiovinyl]-3-cephem-4-carboxylic acid] | 6.25 (≈ 9.96 µM) | 0.05 (≈ 0.0796 µM) | – | –
Nc1nc(/C(=N/O)C(=O)N[C@@H]2C(=O)N3C(C(=O)O)=C(C=CSc4cc(=O)c5ccccc5s4)CS[C@H]23)cs1 [compound 11, sodium 7-[2-hydroxyimino-2-(2-aminothiazol-4-yl)acetamide]-3-[2-(4-oxo-4H-1-benzothiopyran-2-yl)thiovinyl]-3-cephem-4-carbonate] | 1.56 | 0.1 | – | –
Nc1nc(/C(=N/O)C(=O)N[C@@H]2C(=O)N3C(C(=O)O)=C(C=CSc4cc(=O)c5occc5s4)CS[C@H]23)cs1 [compound 17, 7-[2-hydroxyimino-2-(2-aminothiazol-4-yl)acetamide]-3-[2-(7-oxo-7H-thiopyrano[3,2-b]furan-5-yl)thiovinyl]-3-cephem-4-carboxylic acid] | 6.25 (≈ 10.8 µM) | 0.39 (≈ 0.675 µM) | – | –
Nc1nc(/C(=N/O)C(=O)N[C@@H]2C(=O)N3C(C(=O)O)=C(C=CSc4cc(=O)c5ccc(F)cc5s4)CS[C@H]23)cs1 [compound 18, 7-[2-hydroxyimino-2-(2-aminothiazol-4-yl)acetamide]-3-[2-(7-fluoro-4-oxo-4H-1-benzothiopyran-2-yl)thiovinyl]-3-cephem-4-carboxylic acid] | 6.25 (≈ 10.3 µM) | 0.39 (≈ 0.644 µM) | – | –
O=C(Cc1cccs1)N[C@@H]1C(=O)N2C(C(=O)O)=C(C=CSc3cc(=O)c4ccc(N5CCCCC5)cc4s3)CS[C@H]12 [compound 19, 7-[2-(2-thienyl)acetamide]-3-[2-(4-oxo-7-piperidino-4H-1-benzothiopyran-2-yl)thiovinyl]-3-cephem-4-carboxylic acid] | 3.13 (≈ 5 µM) | 0.1 (≈ 0.16 µM) | – | –
O=C(Cc1cccs1)N[C@@H]1C(=O)N2C(C(=O)O)=C(C=CSc3cc(=O)c4sccc4s3)CS[C@H]12 [compound 20, 7-[2-(2-thienyl)acetamide]-3-[2-(7-oxo-7H-thieno[3,2-b]thiopyran-5-yl)thiovinyl]-3-cephem-4-carboxylic acid] | 1.56 (≈ 2.84 µM) | 0.025 (≈ 0.0456 µM) | – | –

Now from value to compound, other results behind:

MIC [1, 3] [µg/mL] | MIC [2, 4] [µg/mL] | Compound | MIC ([1]; NCTC12201, read-out: MIC E. faecalis NCTC-12201) [µg/mL] | MIC [2] [µg/mL]
1.56 (≈ 2.68 µM) | 0.025 (≈ 0.0429 µM) | O=C(Cc1cccs1)N[C@@H]1C(=O)N2C(C(=O)O)=C(C=CSc3cc(=O)c4cc(Cl)sc4s3)CS[C@H]12 [compound 21, 7-[2-(2-thienyl)acetamide]-3-[2-(2-chloro-4-oxo-4H-thieno[2,3-b]thiopyran-6-yl)thiovinyl]-3-cephem-4-carboxylic acid] | – | –
6.25 | ≤ 0.006 | O=C(Cc1cccs1)N[C@@H]1C(=O)N2C(C(=O)O)=C(C=CSc3cc(=O)c4ccc(N5CCNCC5)cc4s3)CS[C@H]12 [compound 22, 7-[2-(2-thienyl)acetamide]-3-[2-(4-oxo-7-(piperazin-1-yl)-4H-1-benzothiopyran-2-yl)thiovinyl]-3-cephem-4-carboxylic acid.hydrochloride] | – | –
3.13 (≈ 5.27 µM) | 0.1 (≈ 0.168 µM) | Nc1nc(/C(=N/O)C(=O)N[C@@H]2C(=O)N3C(C(=O)O)=C(C=CSc4cc(=O)c5sccc5s4)CS[C@H]23)cs1 [compound 23, 7-[2-hydroxyimino-2-(2-aminothiazol-4-yl)acetamide]-3-[2-(7-oxo-7H-thieno[3,2-b]thiopyran-5-yl)thiovinyl]-3-cephem-4-carboxylic acid] | – | –
3.13 (≈ 5.75 µM) | ≤ 0.006 | O=C(Cc1cccs1)N[C@@H]1C(=O)N2C(C(=O)O)=C(C=CSc3cc(=O)c4nccnc4s3)CS[C@H]12 [compound 24, 7-[2-(2-thienyl)acetamide]-3-[2-(8-oxo-8H-thiopyrano[2,3-b]pyrazin-6-yl)thiovinyl]-3-cephem-4-carboxylic acid] | – | –
0.78 (≈ 1.24 µM) | 0.013 (≈ 0.0207 µM) | O=C(Cc1cccs1)N[C@@H]1C(=O)N2C(C(=O)O)=C(C=CSc3sc4ccsc4c(=O)c3Br)CS[C@H]12 [compound 25, 7-[2-(2-thienyl)acetamide]-3-[2-(6-bromo-7-oxo-7H-thieno[3,2-b]thiopyran-5-yl)thiovinyl]-3-cephem-4-carboxylic acid] | – | –
1.56 (≈ 2.63 µM) | 0.025 (≈ 0.0421 µM) | O=C(Cc1cccs1)N[C@@H]1C(=O)N2C(C(=O)O)=C(C=CSc3cc(=O)c4scc([N+](=O)[O-])c4s3)CS[C@H]12 [compound 26, 7-[2-(2-thienyl)acetamide]-3-[2-(3-nitro-7-oxo-7H-thieno[3,2-b]thiopyran-5-yl)thiovinyl]-3-cephem-4-carboxylic acid] | – | –
3.13 (≈ 5.83 µM) | 0.025 (≈ 0.0466 µM) | O=C(Cc1ccccc1)N[C@@H]1C(=O)N2C(C(=O)O)=C(C=CSc3cc(=O)c4ccccc4s3)CS[C@H]12 [compound 27, 7-(2-phenylacetamide)-3-[2-(4-oxo-4H-1-benzothiopyran-2-yl)thiovinyl]-3-cephem-4-carboxylic acid] | – | –
6.25 | 0.0254 | N=C(N)SCc1ccc2c(=O)cc(SC=CC3=C(C(=O)O)N4C(=O)[C@@H](NC(=O)Cc5cccs5)[C@H]4SC3)sc2c1 [compound 28, 7-[2-(2-thienyl)acetamide]-3-[2-(7-isothiuroniummethyl-4-oxo-4H-1-benzothiopyran-2-yl)thiovinyl]-3-cephem-4-carboxylic acid.formate] | – | –
6.25 (≈ 11.5 µM) | ≤ 0.006 | O=C(Cc1cccs1)N[C@@H]1C(=O)N2C(C(=O)O)=C(C=CSc3cc(=O)c4cccnc4s3)CS[C@H]12 [compound 30, 7-[2-(2-thienyl)acetamide]-3-[2-(4-oxo-4H-thiopyrano[2,3-b]pyridin-2-yl)thiovinyl]-3-cephem-4-carboxylic acid] | – | –
3.13 | 0.1 | NCc1c(SC=CC2=C(C(=O)O)N3C(=O)[C@@H](NC(=O)Cc4cccs4)[C@H]3SC2)sc2sc(Cl)cc2c1=O [compound 31, 7-[2-(2-thienyl)acetamide]-3-[2-(5-aminomethyl-2-chloro-4-oxo-4H-thieno[2,3-b]thiopyran-6-yl)thiovinyl]-3-cephem-4-carboxylic acid.trifluoroacetate] | – | –
